Literature values in patent US6800300B1, “Method for treating autoimmune and alloimmune diseases” (Vasogen Ireland Limited, priority 2000, dated 2004).
Where a name gives a salt, the structure may show the parent alone.

Experiments:
[1] = system: TNF-α production by lymphocytes and macrophages
serum TNF = conditions: endotoxin-induced shock rat model

For `COc1ccc(C2CNC(=O)C2)cc1OC1CCCC1` (centres unmarked) [4-(3-cyclopentyloxy4-methoxyphenyl)-2-pyrrolidone], the “production of TNF-α” value [1] is listed as “down-regulate the production of TNF-α”.
For `C[C@H](Cc1ccccc1)Nc1ncnc2c1ncn2[C@@H]1O[C@H](CO)[C@@H](O)[C@H]1O` [R-phenylisopropyladenosine (R-PIA), R-phenylisopropyladenosine], the “serum TNF concentrations” value (serum TNF) is listed as “reduce serum TNF concentrations”.
For `N=C(N)c1ccc(OCCCCCOc2ccc(C(=N)N)cc2)cc1` [pentamidine (isethionate), pentamidine], the “serum TNF concentrations” value (serum TNF) is listed as “reduce serum TNF concentrations”.
In the case of `CC(=O)O[C@H]1C[C@@]2(C)[C@@H](C[C@@H](O)[C@H]3[C@@]4(C)CC[C@@H](O)[C@@H](C)[C@@H]4CC[C@@]32C)/C1=C(\CCC=C(C)C)C(=O)O` [fusidic acid (sodiun salt), fusidic acid], the “serum TNF concentrations” value (serum TNF) is listed as “reduce serum TNF concentrations”.
For `CC(=O)CCCCn1c(=O)c2c(ncn2C)n(C)c1=O` [pentoxifylline], the “serum TNF concentrations” value (serum TNF) is given as “reduce serum TNF concentrations”.
